Test results: patent US20040054194A1, “Method for producing 1-pyrrolines” (priority 2003, published 2004)
Where two headings read alike, the source gives them in different places.

Tests used:
[1] = logP determination by HPLC on a reversed-phase column (C 18), EEC Directive 79/831 Annex V.A8; format: physicochemical; details: reversed-phase HPLC column (C 18), pH 2.3, HPLC
Method: The logp values given in the tables and Preparation Examples above are determined in accordance with EEC Directive 79/831 Annex V .A8 by HPLC (High Performance Liquid Chromatography) on a reversed-phase column (C 18). Temperature: 43° C.
The determination is carried out in the acidic range at pH 2.3 using the mobile phases 0.1% aqueous phosphoric acid and acetonitrile; linear gradient from 10% acetonitrile to 90% acetonitrile.
Calibration is carried out using unbranched alkan-2-ones (of 3 to 16 carbon atoms) with known logp values (determination of the logp values by the retention times using linear interpolation between two successive alkanones).

[2] = acidic range pH 2.3, pyrrolines of the formula (I), read-out: logP*
[3] = pH 2.3, read-out: log P (pH 2.3)
[4] = acidic range pH 2.3, amides of the formula (II), read-out: logP*

Row | Structure (SMILES) | melting point [°C] | chromatographic logP [1, 2] | chromatographic logP [1, 3] | chromatographic logP [1, 4] | chromatographic logP ([1]; acidic range pH 2.3, cyclopropanes of the formula (III), read-out: logP*) | chromatographic logP ([1]; acidic range pH 2.3, chalcones of the formula (VI), read-out: logP*)
1 | Fc1cccc(F)c1C1=NC(c2ccc(Br)cc2)CC1 (centres unmarked) [Example I-1, 2-(4-bromophenyl)-5-(2,6-difluorophenyl)-3,4-dihydro-2H-pyrrole] | 48 | 2.77 | 2.74 | – | – | –
2 | Fc1cccc(F)c1C1=NC(c2ccc(Cl)cc2)CC1 (centres unmarked) [Example I-2, 2-(4-chlorophenyl)-5-(2,6-difluorophenyl)-3,4-dihydro-2H-pyrrole] | – | 2.59 | 2.59 | – | – | –
3 | CC(=O)NC(CCC(=O)c1c(F)cccc1F)c1ccc(Br)cc1 (centres unmarked) [II-1, N-[1-(4-bromophenyl)-4-(2,6-difluorophenyl)-4-oxobutyl]acetamide] | 162 to 163 | – | 2.67 | 2.67 | – | –

Continued, values first:

Row | melting point [°C] | chromatographic logP [1, 2] | chromatographic logP [1, 3] | chromatographic logP [1, 4] | chromatographic logP ([1]; acidic range pH 2.3, cyclopropanes of the formula (III), read-out: logP*) | chromatographic logP ([1]; acidic range pH 2.3, chalcones of the formula (VI), read-out: logP*) | Structure (SMILES)
4 | – | – | 2.59 | 2.59 | – | – | CC(=O)NC(CCC(=O)c1c(F)cccc1F)c1ccc(Cl)cc1 (centres unmarked) [II-2, N-[1-(4-chlorophenyl)-4-(2,6-difluorophenyl)-4-oxobutyl]acetamide]
5 | – | – | – | 3.79 | – | – | CC(=O)NC(CCC(=O)c1c(F)cccc1F)c1ccc(-c2ccc(OC(F)(F)F)cc2)cc1 (centres unmarked) [II-3]
6 | 64 to 65 | – | 4.24 | – | 4.22 | – | O=C(c1c(F)cccc1F)C1CC1c1ccc(Br)cc1 (centres unmarked) [III-1, [2-(4-bromophenyl)cyclopropyl](2,6-difluoro-phenyl)methanone]
7 | 71 | – | 3.98 | – | – | 3.98 | O=C(/C=C/c1ccc(Br)cc1)c1c(F)cccc1F [VI-1, (2E)-3-(4-bromophenyl)-1-(2,6-difluorophenyl)-2-propen-1-one]
